Experimental data: PubChem BioAssay AID588688 (Southern Research Specialized Biocontainment Screening …, 2011)
Active and inactive are the calls of the source.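 How the source made its calls: active means inhibition of 30% or more at any tested concentration; inactive means the rest.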

Molecular target: M17 leucyl aminopeptidase (Plasmodium falciparum 3D7)
Experiment: PfM17LAP leucine aminopeptidase inhibitors, dose response, biochemical, QFRET (AID 588688)
Conditions: recombinant PfM17LAP, H-Leu-NHMec fluorogenic substrate cleavage

Row | Structure (SMILES) | IC50 [µM]
1 | Cc1cc(SCC(=O)Nc2ccccc2C(=O)O)nc2ccccc12 | 17.1
2 | CC1=C(C)CC(C(=O)Nc2nc(-c3cc(C)ccc3C)c(C)s2)C(C(=O)O)C1 (configuration not stated) | 58.8
3 | O=C(Cc1ccc2ccccc2c1)NO | 0.79
4 | COc1ccc(-c2nnc(NC(=O)C3CC(C)=C(C)CC3C(=O)O)s2)cc1 (configuration not stated) | 96.9
5 | CCn1c2ccccc2c2cc(NC(=O)CSc3nc(C)cc(=O)[nH]3)ccc21 | 10.8
6 | COC(=O)c1c(NC(=O)C2CC=CCC2C(=O)O)sc(C)c1-c1ccc(C)cc1 (configuration not stated) | 5.13
7 | O=C(CSc1nccc(=O)[nH]1)Nc1ccc(Oc2ccccc2)cc1 | 23.6
8 | O=C(CSc1nccc(=O)[nH]1)Nc1ccc(N2CCOCC2)cc1 | 17.5
9 | CC1=C(C)CC(C(=O)Nc2ccc(Oc3ccc(Cl)cc3)cc2)C(C(=O)O)C1 (configuration not stated) | 46.6
10 | O=C(Cc1cccc2ccccc12)NO | 6.11
11 | COc1ccc(OCCC(=O)NO)cc1 | 65.6
12 | Cc1ccc(NC(=O)CSc2nc(O)cc(=O)n2Cc2ccccc2)cc1 | 33.5
13 | O=C(CSc1nc(O)cc(=O)[nH]1)Nc1ccccc1 | 101
14 | COc1cc(NC(=O)CSc2ccccc2)c(C(=O)O)cc1OC | 25.6

Same assay, conditions: recombinant PfM17LAP, H-Leu-NHMec fluorogenic substrate cleavage; at 100 µM (top of the series)

Row | Structure (SMILES) | inhibition
15 | NC(N)=NCCC[C@H](N)C(=O)NO | inactive
16 | O=C(CSc1ccccc1)Nc1cccc2c1C(=O)NC2=O | inactive
17 | COC(=O)c1cc(OC)c(OC)cc1NC(=O)c1sc2nc(C)ccc2c1N | inactive
18 | O=C(O)c1ccccc1C(=O)Nc1nc2c(s1)CCCC2 | inactive
19 | CCC(C)(C)C1CCc2c(sc(NC(=O)C3CC(C)=C(C)CC3C(=O)O)c2C(=O)OC)C1 (configuration not stated) | inactive
20 | COc1cc(NC(=O)c2ccc(-c3ccccc3)cc2)c(C(=O)O)cc1OC | inactive
21 | COC(=O)c1c(NC(=O)c2ccccc2C(=O)O)sc2c1CCCC2 | inactive
22 | COC(=O)c1ccccc1NC(=O)c1ccc2c(Cl)c3c(nc2c1)CCC3 | inactive
23 | O=C(Nc1ccc(Cl)cc1)Nc1ccccc1C(=O)O | inactive
24 | N[C@@H](Cc1c[nH]c2ccccc12)C(=O)NO | inactive
25 | COC(=O)c1ccccc1NC(=O)c1cc2cc3ccc(C)cc3nc2s1 | inactive
26 | CC(C)C[C@H](N)C(=O)NO | inactive
27 | CC1CCc2sc(C(=O)Nc3cccc4c3C(=O)NC4)cc2C1 (configuration not stated) | inactive
